# Measurements from US8993612B2, “Modulators of calcium release-activated calcium channel and methods for treatment of non-small cell lung cancer” (Rhizen Pharmaceuticals SA, priority 2009, dated 2015).
# pIC50: −log10 of the molar value. Counter-ions that a name gives are not always drawn. Like-named read-outs stand apart in the source and are kept apart here.
# What was measured:
# TNFα = assay: Inhibition of TNFα release in human whole blood; type: cell-based; settings: Concanavalin A + PMA, 20 h, read-out: IC 50 Human Whole Blood TNFα
# Protocol: (§1) Inhibition of cytokine IL-2, IL-4, IL-5 and TNF α was determined as described below.
# (§2) Freshly collected HWB was diluted with RPMI medium (1:4.5) and added to a 96-well plate. Wells were incubated with desired concentrations of the inhibitor for 15 min. Cytokine release was induced by the addition of Concanavalin A (25 μg/ml)+Phorbol Myristate Acetate (50 ng/ml) for IL-2 & TNFα or with Phytohemagglutinin (5 μg/ml) for IL-4 & IL-5 and incubated at 37° C. in an atmosphere containing […]. Supernatant was collected after 20 h (IL-2 & TNFα) or 48 h (IL-4 & IL-5) for estimation of cytokines by ELISA. Data were analysed using GraphPad Prism. IC50 values for each compound were determined based on the percent inhibition due to the test compound compared to the control.
# CRAC channels [1] = target: T1, CRAC channels (Homo sapiens (Human), UniProt Q96D31); assay: In-vitro CRAC channel inhibition assay in Jurkat cells (thapsigargin-induced calcium influx); type: cell-based
# T1 sequence (Q96D31 whole entry): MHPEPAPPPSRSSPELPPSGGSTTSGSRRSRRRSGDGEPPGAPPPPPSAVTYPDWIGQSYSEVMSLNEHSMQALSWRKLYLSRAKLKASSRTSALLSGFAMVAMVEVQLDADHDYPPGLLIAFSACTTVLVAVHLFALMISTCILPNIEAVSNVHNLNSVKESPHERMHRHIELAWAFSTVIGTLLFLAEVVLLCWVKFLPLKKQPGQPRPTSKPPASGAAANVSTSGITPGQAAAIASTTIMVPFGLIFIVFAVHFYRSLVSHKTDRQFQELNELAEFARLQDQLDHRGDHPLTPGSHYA
# Protocol: Inhibition of CRAC channels was determined following thapsigargin (Sigma, Cat # T9033) induced endoplasmic calcium release in Jurkat cells. (see Yasurio Yonetoky et. al Bio. & Med. Chem. 14 (2006) 4750-4760). Cells were centrifuged and resuspended in equal volumes ° f Ca^2+ and Mg^2+ free Hanks buffer and Fluo-8 NW dye (ABD Bioquest, Inc., Sunnyvale, Calif.) loading solution at 2×10^5 cells/100 μl/well in 96-well black plate. Plate is incubated at 37° C./5% CO2 for 30 mM followed by further 15 mM incubation at room temperature. Test compounds (DMSO stocks diluted in Ca^2+ and Mg^2+ free Hanks buffer) at desired concentrations were added to the wells and incubated for […]. Thapsigargin (1 μM final concentration) was added to the wells and incubated for 15 min to inhibit the Sarco-endoplasmic reticulum Ca^2+ ATPase pump thereby depleting endoplasmic calcium and raising cytosolic calcium concentrations. Store-operated calcium entry was initiated by adding extracellular Ca^2+ to a final concentration of 1.8 mM. Fluorescence was monitored over […] on a plate reader (BMG Labtech., Germany) with excitation at 485 nm and an emission wavelength at 520 nm. Data were analyzed using GraphPad Prism. IC50 for each compound was determined based on the percent inhibition of thapsigargin-induced calcium influx into cells.
# IL-2 = assay: Inhibition of IL-2 release in human whole blood; type: cell-based; settings: Concanavalin A + PMA, 20 h, read-out: IC 50 Human Whole Blood IL-2
# Protocol: as §1, §2
# CRAC channels [2] = target: T1, CRAC channels; assay: In-vitro CRAC channel inhibition assay in NCI-H460 cancer cell line (thapsigargin-induced calcium influx); type: cell-based; settings: NCI-H460 cells; for inhibition at 1 µM: read-out: NCI-H460 Cell Ca assay % inhibition @ 1 μM; for IC50: read-out: NCI-H460 Cell Ca assay IC 50 nM
# Protocol: Inhibition of CRAC channels was determined following thapsigargin (Sigma, Cat # T9033) induced endoplasmic calcium release in NCI-H460 cells (National Centre For Cell Science (NCCS), Pune).
# Cells (30,000 per well) were plated overnight in complete RPMI medium. Medium was substituted with Ca^2+ and Mg^2+ free Hanks buffer and Fluo-8 NW dye (ABD Bioquest, Inc., Sunnyvale, Calif.) loading solution in 96-well black plate. Plate was incubated at 37° C./5% CO2 for 30 min followed by further 15 mM incubation at room temperature. Test compounds (DMSO stocks diluted in Ca^2+ and Mg^2+ free Hanks buffer) at desired concentrations were added to the wells and incubated for 15 min. Thapsigargin (1 μM final concentration) was added to the wells and incubated for 15 min to inhibit the Sarco-endoplasmic reticulum Ca^2+ ATPase pump thereby depleting endoplasmic calcium and raising cytosolic calcium concentrations. Store-operated calcium entry was initiated by adding extracellular Ca^2+ to a final concentration of 2.5 mM. Fluorescence was monitored over 30 mM on a plate reader (BMG Labtech., Germany) with excitation at 485 nm and an emission wavelength at 520 nm. Data were analyzed using GraphPad Prism. IC50 for each compound was determined based on the percent inhibition of Thapsigargin-induced calcium influx into cells.
# For Methodology Refer 1B.
# NCI-H460 cells [3] = assay: In-vitro cell proliferation assay in NCI-H460 cancer cell line (MTT); type: cell-based, human; settings: for inhibition at 10 µM: NCI-H460, 10 μM; for pIC50: read-out: NCI-H460 Cell line assay G1 50 nM
# Protocol: Growth inhibition assays were carried out using 10% FBS supplemented media. Cells were seeded at a concentration of 5000 cells/well in a 96-well plate. Test compound at a concentration range from 0.01 to 10000 nM were added after 24 h. Growth was assessed using the 3-[4,5-dimethylthiazol-2-yl]-2,5-diphenyltetrazolium bromide (MTT) dye reduction test at 0 h (prior to the addition of the test compound) and 48 h after the addition of test compound. Absorbance was read on a Fluostar Optima (BMG Labtech, Germany) at a wave length of 450 nm. Data were analysed using GraphPad Prism. IC-50 for each compound was determined based on the % inhibition due to the test compound compared to the control.
# For methods of cell proliferation assay, see, for example, Mosmann. T., Journal of Immunological Methods, 65(1-2), 55-63, (1983).
# The effect of CRAC and/or STIM protein on the proliferation and viability of lung cancer cells was determined as follows.
# For Methodology Refer 1C.
# NCI-H460 cells [4] = assay: Cytotoxicity in NCI-H460 cells (lactate dehydrogenase assay); type: cell-based, human; settings: 48 h
# Protocol: Cytotoxicity of a test compound (Compound B) was determined using a lactate dehydrogenase assay kit (Cayman Chemicals, MI) as per the manufacturer's instructions with some minor modifications. Briefly, 20,000 cells/well in complete RPMI-1640 media were seeded in a 96-well tissue culture plate and incubated overnight at 37° C. and 5% CO2. The test compound was added to the wells in triplicate at the desired concentrations. Doxorubicin and/or 1% Triton-X were used as a positive control. After 48 h, the media was removed and assayed for lactate dehydrogenase in a colorimetric assay. Optical density was measured on a microplate reader (BMG Labtech., Germany) at 490 nM. Data were analyzed using Graphpad Prism (Graphpad software; San Diego Calif.).
# Orai1 = Orai1 mRNA expression in NCI-H460 cells by PCR; type: cell-based, human; settings: 1 and 10 μM, qualitative PCR
# Protocol: (§3) Orai1 and Stim1 expression in non-small cell lung cancer cell lines was confirmed by PCR (polymerase chain reaction). Briefly, 5×10^6 cells treated with desired concentrations of the test article were harvested, pelleted, and resuspended in 1 ml TRI Reagent (Sigma, St. Louis, Mo.) and total RNA was extracted as per the manufacturer's instructions. cDNA was prepared using the First Strand cDNA synthesis and amplified using the following primer pairs:
# (§4) Bands were resolved by agarose gel electrophoresis and visualized using SYBR safe DNA gel stain.
# (§5) Orai and Stim expressions were measured using the methodology described in Example 1 above in NCI-H460 cells but with 1 and 10 μM of compound B.
# Stim1 = Stim1 mRNA expression in NCI-H460 cells by PCR; type: cell-based, human; settings: 1 and 10 μM, qualitative PCR
# Protocol: as §3, §4, §5
# Stim2 = Stim2 mRNA expression in NCI-H460 cells by PCR; type: cell-based, human; settings: 1 and 10 μM, qualitative PCR
# Protocol: as §3, §4, §5
# [5] = Body weight in the NCI-H460 xenograft study; type: in vivo; settings: Balb/c nude mice
# [6] = test system: NCI-H460 human non-small cell lung cancer xenografts; assay: Anti-tumor efficacy in female Balb/c nude mice bearing NCI-H460 xenografts; type: in vivo
# [7] = test system: CRAC channels over the voltage operated channels (VOC); settings: Yonetoky et al.; cited from earlier work
# [8] = 30 mg/kg orally BID for 15 days
compound,measurement,setting,value
"O=C(Nc1ccc(-n2nc(C3CC3)cc2C2CC2)cc1)c1ccc2nn[nH]c2c1 [Example 2, N-[4-(3,5-dicyclopropyl-1H-pyrazol-1-yl)phenyl]-1H-benzo[d][1,2,3]triazole-6-carboxamide]",pIC50,TNFα,6.83
same,pIC50,CRAC channels [1],6.74
same,inhibition at 1 µM,CRAC channels [1]; 1 uM,78%
same,pIC50,IL-2,6.99
same,inhibition at 1 µM,CRAC channels [2],91.1%
same,inhibition at 10 µM,"NCI-H460 cells [3]; Homo sapiens, 48 h",34%
"O=C(Nc1ccc(-n2nc(C3CC3)cc2C2CC2)cc1)c1ccc2ncccc2c1 [Example 3, N-[4-(3,5-dicyclopropyl-1H-pyrazol-1-yl)phenyl]quinoline-6-carboxamide hydrochloride]",inhibition at 1 µM,CRAC channels [1]; 1 uM,100%
same,inhibition at 1 µM,CRAC channels [2],100%
same,pIC50,"NCI-H460 cells [3]; Homo sapiens, NCI-H460, 48 h",6.58
"O=C(Nc1ccc(-n2nc(C3CC3)cc2C2CC2)cc1)c1ccc2nccnc2c1 [Example 4, N-[4-(3,5-dicyclopropyl-1H-pyrazol-1-yl)phenyl]quinoxaline-6-carboxamide]",inhibition at 1 µM,CRAC channels [1]; 1 uM,85%
same,inhibition at 1 µM,CRAC channels [2],80.7%
same,inhibition at 10 µM,"NCI-H460 cells [3]; Homo sapiens, 48 h",41%
"O=C(Cn1cnc2ccccc21)Nc1ccc(-n2nc(C3CC3)cc2C2CC2)cc1 [Example 5, 2-(1H-benzo[d]imidazol-1-yl)-N-[4-(3,5-dicyclopropyl-1H-pyrazol-1-yl)phenyl]acetamide]",pIC50,CRAC channels [1],6.42
same,inhibition at 1 µM,CRAC channels [1]; 1 uM,88.5%
same,IC50,CRAC channels [2],79.9 nM
same,pIC50,"NCI-H460 cells [3]; Homo sapiens, NCI-H460, 48 h",6.75
"O=C(Cn1nnc2ccccc21)Nc1ccc(-n2nc(C3CC3)cc2C2CC2)cc1 [Example 6, 2-(1H-benzo[d][1,2,3]triazol-1-yl)-N-[4-(3,5-dicyclopropyl-1H-pyrazol-1-yl)phenyl]acetamide]",pIC50,TNFα,6.78
same,pIC50,CRAC channels [1],7.29
same,inhibition at 1 µM,CRAC channels [1]; 1 uM,94.6%
same,pIC50,IL-2,7.28
"O=C(Cc1ccc2ncccc2c1)Nc1ccc(-n2nc(C3CC3)cc2C2CC2)cc1 [Example 9, N-[4-(3,5-dicyclopropyl-1H-pyrazol-1-yl)phenyl]-2-(quinolin-6-yl)acetamide]",inhibition at 1 µM,CRAC channels [1]; 1 uM,100%
same,Cytotoxicity (lactate dehydrogenase in the media),NCI-H460 cells [4],not cytotoxic
same,mRNA expression of Orai1,Orai1,significantly reduced
same,pIC50,"NCI-H460 cells [3]; Homo sapiens, NCI-H460, 48 h",6.57
same,mRNA expression of Stim1,Stim1,significantly reduced
same,mRNA expression of Stim2,Stim2,significantly reduced
"Cl.O=C(Cc1ccc2ncccc2c1)Nc1ccc(-n2nc(C3CC3)cc2C2CC2)cc1 [Example 10, N-[4-(3,5-dicyclopropyl-1H-pyrazol-1-yl)phenyl]-2-(quinolin-6-yl)acetamide hydrochloride]",% inhibition (1 uM),CRAC channels [1]; 1 uM,100%
same,IC50,CRAC channels [2],72.7 nM
"O=C(Nc1ccc(-n2nc(C(F)(F)F)cc2C2CC2)cc1)c1ccc2ncccc2c1 [Example 17, N-{4-[5-cyclopropyl-3-(trifluoromethyl)-1H-pyrazol-1-yl]phenyl}quinoline-6-carboxamide hydrochloride]",inhibition at 1 µM,CRAC channels [1]; 1 uM,94%
same,inhibition at 1 µM,CRAC channels [2],100%
same,pIC50,"NCI-H460 cells [3]; Homo sapiens, NCI-H460, 48 h",6.15
"O=C(Cn1cnc2ccccc21)Nc1ccc(-n2nc(C(F)(F)F)cc2C2CC2)cc1 [Example 19, 2-(1H-benzo[d]imidazol-1-yl)-N-{4-[5-cyclopropyl-3-(trifluoromethyl)-1H-pyrazol-1-yl]phenyl}acetamide]",inhibition at 1 µM,CRAC channels [1]; 1 uM,69.5%
same,change in body weight,[5]; [8],without any significant change
same,reduction in tumor growth,[6]; [8],32%
same,inhibition at 1 µM,CRAC channels [2],100%
same,IC50,CRAC channels [2],< 200 nM
same,pIC50,NCI-H460 cells [3]; 48 h,6.83
same,inhibition at 1 µM,"NCI-H460 cells [3]; Homo sapiens, NCI-H460, 1 uM, 48 h",100%
same,inhibition at 10 µM,"NCI-H460 cells [3]; Homo sapiens, 48 h",83.6%
same,pIC50,"NCI-H460 cells [3]; Homo sapiens, NCI-H460, 48 h",> 6.70
"O=C(Cc1ccc2ncccc2c1)Nc1ccc(-n2nc(C(F)(F)F)cc2C2CC2)cc1 [Example 27, N-{4-[5-cyclopropyl-3-(trifluoromethyl)-1H-pyrazol-1-yl]phenyl}-2-(quinolin-6-yl)acetamide Hydrochloride]",pIC50,TNFα,6.93
same,inhibition at 1 µM,CRAC channels [1]; 1 uM,100%
same,pIC50,IL-2,6.90
same,inhibition at 1 µM,CRAC channels [2],98.1%
same,pIC50,"NCI-H460 cells [3]; Homo sapiens, NCI-H460, 48 h",6.45
Cc1nnsc1C(=O)Nc1ccc(-n2nc(C(F)(F)F)cc2C(F)(F)F)cc1 [YM-58483],selective index for CRAC channels over VOC,[7],31
"CC(=O)O[C@H]1C(=O)[C@@]2(C)[C@H]([C@H](OC(=O)c3ccccc3)[C@]3(O)C[C@H](OC(=O)[C@H](O)[C@@H](NC(=O)c4ccccc4)c4ccccc4)C(C)=C1C3(C)C)[C@]1(OC(C)=O)CO[C@@H]1C[C@@H]2O [taxol, Paclitaxel, reference compound]",change in body weight,[5]; intravenous administration,significant reduction
same,reduction in tumor growth,[6]; intravenous administration,36%
